Laboratory results published in US20250122225A1, “MASP-2 INHIBITORS AND METHODS OF USE” (Omeros Corporation, priority 2023, published 2025).
Where a name gives a salt, the structure may show the parent alone.

How the values were obtained:
[1] = target: T1, human α-thrombin (Homo sapiens, UniProt P00734); test: Enzymatic assay for thrombin (fluorogenic peptide substrate Boc-VPR-AMC); format: biochemical
T1 construct: enzyme (human α-thrombin (BioPharm® Lab.)) in assay buffer; purchased BioPharm® Lab
Outline: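 Human α-thrombin was run with the fluorogenic substrate Boc-VPR-AMC in 20 mM Hepes pH 7.4, 140 mM NaCl, 0.1% Tween 20 at room temperature for 20 min, then stopped with 0.1 M acetic acid. % activity was normalized to DMSO and no-enzyme controls. Under linear conditions IC50 equalled Ki, except for tight-binding inhibitors.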

[2] = target: T2, MASP-2 (CCP1-CCP2-SP) (Homo sapiens, UniProt O00187); test: Enzymatic assay for MASP-2 inhibitory activity (fluorogenic substrate); format: biochemical
T2 construct: 15 μL of Enzyme MASP-2 (CCP1-CCP2-SP) in Assay Buffer
Outline: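 MASP-2 (CCP1-CCP2-SP) cleaved a fluorogenic substrate based on the C2 cleavage site in 20 mM HEPES pH 7.4, 140 mM NaCl, 0.1% Tween 20 at room temperature. After 20 min the reaction was stopped with 0.1 M acetic acid and fluorescence read. % activity was normalized to DMSO-only and no-enzyme controls; IC50 taken as Ki.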

T2 sequence (O00187 445-686 limits assumed): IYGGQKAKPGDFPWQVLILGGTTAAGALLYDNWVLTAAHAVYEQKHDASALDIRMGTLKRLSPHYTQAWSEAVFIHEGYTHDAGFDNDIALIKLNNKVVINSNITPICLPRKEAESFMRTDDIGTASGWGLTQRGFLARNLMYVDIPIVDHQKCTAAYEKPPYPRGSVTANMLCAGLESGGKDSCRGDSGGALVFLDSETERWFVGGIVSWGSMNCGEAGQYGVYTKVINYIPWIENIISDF
T2 sequence (O00187 287-444 partner limits assumed): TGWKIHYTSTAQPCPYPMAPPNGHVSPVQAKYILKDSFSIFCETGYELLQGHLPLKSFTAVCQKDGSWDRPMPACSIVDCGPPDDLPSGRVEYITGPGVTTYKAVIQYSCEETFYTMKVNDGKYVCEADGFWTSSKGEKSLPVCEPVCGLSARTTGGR

Compound	Ki [1] [nM]	Ki [2] [nM]
Cc1cc(F)cc(CNc2ncc3n(c2=O)[C@@H](C(=O)NCc2ccc(N)nc2C)CC3)c1 [Compound 163, (R)—N-((6-amino-2-methylpyridin-3-yl)methyl)-3-((3-fluoro-5-methylbenzyl)amino)-4-oxo-4,6,7,8-tetrahydropyrrolo[1,2-a]pyrazine-6-carboxamide]	< 500	< 500
COc1cc(C)cc(CNc2ncc3n(c2=O)[C@@H](C(=O)NCc2cc4cnccc4[nH]2)CC3)c1 [Compound 164]	2500 to 10000	< 500
Cc1cc(F)cc(CNc2nc(Cl)c3n(c2=O)[C@H](C(=O)NCc2cnc4ccccn24)CC3)c1 [Compound 165, (S)-1-chloro-3-((3-fluoro-5-methylbenzyl)amino)-N-(imidazo[1,2-a]pyridin-3-ylmethyl)-4-oxo-4,6,7,8-tetrahydropyrrolo[1,2-a]pyrazine-6-carboxamide trifluoroacetate]	> 25000	10000 to 25000
Cc1nc(N)ccc1CNC(=O)[C@@H]1CCc2cnc(NCc3cnn(-c4ccccc4)c3)c(=O)n21 [Compound 166, (S)—N-((6-amino-2-methylpyridin-3-yl)methyl)-4-oxo-3-(((1-phenyl-1h-pyrazol-4-yl)methyl)amino)-4,6,7,8-tetrahydropyrrolo[1,2-a]pyrazine-6-carboxamide trifluoroacetate]	500 to 2500	< 500
Cc1nc(N)ccc1CNC(=O)[C@@H]1CCc2cnc(NCc3cnn(C)c3)c(=O)n21 [Compound 167, (S)-N-((6-amino-2-methylpyridin-3-yl)methyl)-3-(((1-methyl-1H-pyrazol-4-yl)methyl)amino)-4-oxo-4,6,7,8-tetrahydropyrrolo[1,2-a]pyrazine-6-carboxamide trifluoroacetate]	500 to 2500	< 500
Cc1nc(N)ccc1CNC(=O)[C@@H]1CCc2cnc(NCc3cn4c(n3)CCCC4)c(=O)n21 [Compound 168, (S)-N-((6-amino-2-methylpyridin-3-yl)methyl)-4-oxo-3-(((5,6,7,8-tetrahydroimidazo[1,2-a]pyridin-2-yl)methyl)amino)-4,6,7,8-tetrahydropyrrolo[1,2-a]pyrazine-6-carboxamide trifluoroacetate]	2500 to 10000	500 to 2500
Cc1nc(N)ccc1CNC(=O)[C@@H]1CCc2cnc(NCc3cccc(-n4cccn4)c3)c(=O)n21 [Compound 169, (S)-3-((3-(1H-pyrazol-1-yl)benzyl)amino)-N-((6-amino-2-methylpyridin-3-yl)methyl)-4-oxo-4,6,7,8-tetrahydropyrrolo[1,2-a]pyrazine-6-carboxamide trifluoroacetate]	< 500	< 500
Cc1nc(N)ccc1CNC(=O)[C@@H]1CCc2cnc(NCc3nn(C)c4ccccc34)c(=O)n21 [Compound 170, (S)-N-((6-amino-2-methylpyridin-3-yl)methyl)-3-(((1-methyl-1H-indazol-3-yl)methyl)amino)-4-oxo-4,6,7,8-tetrahydropyrrolo[1,2-a]pyrazine-6-carboxamide trifluoroacetate]	< 500	< 500
COc1cc(F)cc(CNc2ncc3n(c2=O)[C@H](C(=O)NCc2ccc(N)nc2C)CC3)c1 [Compound 171, (S)-N-((6-amino-2-methylpyridin-3-yl)methyl)-3-((3-fluoro-5-methoxybenzyl)amino)-4-oxo-4,6,7,8-tetrahydropyrrolo[1,2-a]pyrazine-6-carboxamide trifluoroacetate]	< 500	< 500
Cc1nc(N)ccc1CNC(=O)[C@@H]1CCc2cnc(NCc3ccc4c(cnn4C)c3)c(=O)n21 [Compound 172]	< 500	< 500
Cc1cc(F)cc(CNc2ncc3n(c2=O)[C@H](C(=O)NCc2ccc([C@@H](C)N)cc2)CC3)c1 [Compound 173, (S)—N-(4-((R)-1-aminoethyl)benzyl)-3-((3-fluoro-5-methylbenzyl)amino)-4-oxo-4,6,7,8-tetrahydropyrrolo[1,2-a]pyrazine-6-carboxamide trifluoroacetate]	> 25000	2500 to 10000
Cc1cc(F)cc(CNc2nc(-c3cnn(C)c3)c3n(c2=O)[C@H](C(=O)NCc2ccc(N)nc2C)CC3)c1 [Compound 174, (S)—N-((6-amino-2-methylpyridin-3-yl)methyl)-3-((3-fluoro-5-methylbenzyl)amino)-1-(1-methyl-1H-pyrazol-4-yl)-4-oxo-4,6,7,8-tetrahydropyrrolo[1,2-a]pyrazine-6-carboxamide trifluoroacetate]	> 25000	< 500
Cc1cc(F)cc(CNc2nc(-c3ccnn3C)c3n(c2=O)[C@H](C(=O)NCc2ccc(N)nc2C)CC3)c1 [Compound 175, (S)-N-((6-amino-2-methylpyridin-3-yl)methyl)-3-((3-fluoro-5-methylbenzyl)amino)-1-(1-methyl-1H-pyrazol-5-yl)-4-oxo-4,6,7,8-tetrahydropyrrolo[1,2-a]pyrazine-6-carboxamide trifluoroacetate]	500 to 2500	< 500
Cc1cc(F)cc(CNc2nc(C3CCCCC3)c3n(c2=O)[C@H](C(=O)NCc2ccc(N)nc2C)CC3)c1 [Compound 176, (S)—N-((6-amino-2-methylpyridin-3-yl)methyl)-1-cyclohexyl-3-((3-fluoro-5-methylbenzyl)amino)-4-oxo-4,6,7,8-tetrahydropyrrolo[1,2-a]pyrazine-6-carboxamide DI-trifluoroacetate]	10000 to 25000	< 500
Cc1cc(F)cc(CNc2nc(C3CCCCC3)c3n(c2=O)[C@H](C(=O)NCc2cc4cnccc4[nH]2)CC3)c1 [Compound 177, trifluoroacetate]	> 25000	< 500
Cc1cc(F)cc(CNc2ncc3n(c2=O)[C@H](C(=O)NCc2cc(Cl)ccc2-n2cnnn2)CC3)c1 [Compound 179, (S)—N-(5-chloro-2-(1H-tetrazol-1-yl)benzyl)-3-((3-fluoro-5-methylbenzyl)amino)-4-oxo-4,6,7,8-tetrahydropyrrolo[1,2-a]pyrazine-6-carboxamide]	< 500	< 500
Cc1cc(F)cc(CNc2ncc3n(c2=O)[C@H](C(=O)NCc2cccc(Cl)c2)CC3)c1 [Compound 180]	2500 to 10000	500 to 2500
Cc1cc(F)cc(CNc2ncc3n(c2=O)[C@H](C(=O)NCc2cnc4[nH]cc(Cl)c4c2)CC3)c1 [Compound 182, (S)—N-((3-chloro-1H-pyrrolo[2,3-b]pyridin-5-yl)methyl)-3-((3-fluoro-5-methylbenzyl)amino)-4-oxo-4,6,7,8-tetrahydropyrrolo[1,2-a]pyrazine-6-carboxamide]	< 500	< 500
Cc1cc(F)cc(CNc2ncc3n(c2=O)[C@H](C(=O)NCc2cnc4[nH]ccc4c2)CC3)c1 [Compound 183, (S)-N-((1H-pyrrolo[2,3-b]pyridin-5-yl)methyl)-3-((3-fluoro-5-methylbenzyl)amino)-4-oxo-4,6,7,8-tetrahydropyrrolo[1,2-a]pyrazine-6-carboxamide]	2500 to 10000	500 to 2500
Cc1cc(F)cc(CNc2ncc3n(c2=O)[C@H](C(=O)NCc2ccc(N)c(F)c2)CC3)c1 [Compound 184, (S)-N-(4-amino-3-fluorobenzyl)-3-((3-fluoro-5-methylbenzyl)amino)-4-oxo-4,6,7,8-tetrahydropyrrolo[1,2-a]pyrazine-6-carboxamide]	500 to 2500	500 to 2500
Cc1cc(F)cc(CNc2ncc3n(c2=O)[C@H](C(=O)NC(C#N)c2cccc(Cl)c2)CC3)c1 (stereo partly drawn) [Compound 185, (6S)-N-((3-chlorophenyl)(cyano)methyl)-3-((3-fluoro-5-methylbenzyl)amino)-4-oxo-4,6,7,8-tetrahydropyrrolo[1,2-a]pyrazine-6-carboxamide]	2500 to 10000	2500 to 10000
Cc1cc(C)cc(CNc2ncc3n(c2=O)[C@H](C(=O)N[C@@H]2CCc4nc(N)ccc42)CC3)c1 [Compound 186, (S)-N-((R)-2-amino-6,7-dihydro-5H-cyclopenta[b]pyridin-5-yl)-3-((3,5-dimethylbenzyl)amino)-4-oxo-4,6,7,8-tetrahydropyrrolo[1,2-a]pyrazine-6-carboxamide]	< 500	< 500
Cc1cccc(CNc2ncc3n(c2=O)[C@H](C(=O)N[C@H](C)c2ccc(N)nc2)CC3)c1 [Compound 187, (S)-N-((R)-1-(6-aminopyridin-3-yl)ethyl)-3-((3-methylbenzyl)amino)-4-oxo-4,6,7,8-tetrahydropyrrolo[1,2-a]pyrazine-6-carboxamide]	2500 to 10000	< 500
Cc1cc(F)cc(CNc2ncc3n(c2=O)[C@H](C(=O)NCc2ccc(N)c(Cl)c2)CC3)c1 [Compound 188, (S)-N-(4-amino-3-chlorobenzyl)-3-((3-fluoro-5-methylbenzyl)amino)-4-oxo-4,6,7,8-tetrahydropyrrolo[1,2-a]pyrazine-6-carboxamide]	< 500	< 500
Cc1cc(C)cc(CNc2ncc3n(c2=O)[C@H](C(=O)NCc2cnc(N)c(Cl)c2)CC3)c1 [Compound 189, (S)-N-((6-amino-5-chloropyridin-3-yl)methyl)-3-((3,5-dimethylbenzyl)amino)-4-oxo-4,6,7,8-tetrahydropyrrolo[1,2-a]pyrazine-6-carboxamide]	500 to 2500	< 500
Cc1cc(F)cc(CNc2ncc3n(c2=O)[C@H](C(=O)N[C@H](C)c2ccc(N)nc2)CC3)c1 [Compound 191, (S)-N-((R)-1-(6-aminopyridin-3-yl)ethyl)-3-((3-fluoro-5-methylbenzyl)amino)-4-oxo-4,6,7,8-tetrahydropyrrolo[1,2-a]pyrazine-6-carboxamide trifluoroacetate]	2500 to 10000	< 500
